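The compound was tested at five concentrations on cells cultured in 96-well plates, with a 48-hour exposure period. TGI denotes the concentration required for complete inhibition of growth.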
How the values were obtained:
Assay in all cases: NCI tumour cell line growth inhibition, 48 h
KM12 colon = test system: KM12 colon
PC-3 prostate = test system: PC-3 prostate
SR leukemia = test system: SR leukemia
HS 578T breast = test system: HS 578T breast
NCI-H522 lung = test system: NCI-H522 lung
MDA-N = test system: MDA-N
EKVX NSCLC = test system: EKVX NSCLC
LOX IMVI melanoma = test system: LOX IMVI melanoma
K-562 leukemia = test system: K-562 leukemia
IGROV1 ovarian = test system: IGROV1 ovarian
UACC-62 melanoma = test system: UACC-62 melanoma
MOLT-4 leukemia = test system: MOLT-4 leukemia
UO-31 renal = test system: UO-31 renal
NCI-H23 lung = test system: NCI-H23 lung
SN12C renal = test system: SN12C renal
NCI/ADR-RES ovarian = test system: NCI/ADR-RES ovarian
T-47D breast = test system: T-47D breast
NCI-H460 lung = test system: NCI-H460 lung
COLO 205 colon = test system: COLO 205 colon
SNB-19 CNS = test system: SNB-19 CNS
HL-60(TB) leukemia = test system: HL-60(TB) leukemia
A498 renal = test system: A498 renal
SK-MEL-28 melanoma = test system: SK-MEL-28 melanoma
ACHN renal = test system: ACHN renal
OVCAR-3 ovarian = test system: OVCAR-3 ovarian
HCT-15 colon = test system: HCT-15 colon
TK-10 renal = test system: TK-10 renal
RPMI-8226 leukemia = test system: RPMI-8226 leukemia
MDA-MB-435 = test system: MDA-MB-435
A549 NSCLC = test system: A549 NSCLC
UACC-257 melanoma = test system: UACC-257 melanoma
HT29 colon = test system: HT29 colon
HCT-116 colon = test system: HCT-116 colon
U251 CNS = test system: U251 CNS
HOP-92 NSCLC = test system: HOP-92 NSCLC
HCC-2998 colon = test system: HCC-2998 colon
OVCAR-8 ovarian = test system: OVCAR-8 ovarian
SK-MEL-2 melanoma = test system: SK-MEL-2 melanoma
SF-539 CNS = test system: SF-539 CNS
786-0 renal = test system: 786-0 renal
OVCAR-4 ovarian = test system: OVCAR-4 ovarian
BT-549 breast = test system: BT-549 breast
MALME-3M melanoma = test system: MALME-3M melanoma
SF-268 CNS = test system: SF-268 CNS
M14 melanoma = test system: M14 melanoma
SK-MEL-5 melanoma = test system: SK-MEL-5 melanoma
SW-620 colon = test system: SW-620 colon
SK-OV-3 ovarian = test system: SK-OV-3 ovarian
SF-295 CNS = test system: SF-295 CNS
MCF7 breast = test system: MCF7 breast
MDA-MB-231 breast = test system: MDA-MB-231 breast
DU-145 prostate = test system: DU-145 prostate
CAKI-1 renal = test system: CAKI-1 renal
HOP-62 NSCLC = test system: HOP-62 NSCLC
NCI-H226 lung = test system: NCI-H226 lung
RXF 393 renal = test system: RXF 393 renal
SNB-75 CNS = test system: SNB-75 CNS
CCRF-CEM leukemia = test system: CCRF-CEM leukemia
OVCAR-5 ovarian = test system: OVCAR-5 ovarian

CCNC(=O)Cc1nc2c(N)ncnc2n1C1OC(CO)C(O)C1O (stereo not drawn)
TGI (KM12 colon): > 100 µM
TGI (PC-3 prostate): > 100 µM
TGI (SR leukemia): > 100 µM
TGI (HS 578T breast): > 100 µM
TGI (NCI-H522 lung): > 100 µM
TGI (MDA-N): > 100 µM
TGI (EKVX NSCLC): > 100 µM
TGI (LOX IMVI melanoma): > 100 µM
TGI (K-562 leukemia): > 100 µM
TGI (IGROV1 ovarian): > 100 µM
TGI (UACC-62 melanoma): > 100 µM
TGI (MOLT-4 leukemia): > 100 µM
TGI (UO-31 renal): > 100 µM
TGI (NCI-H23 lung): > 100 µM
TGI (SN12C renal): > 100 µM
TGI (NCI/ADR-RES ovarian): > 100 µM
TGI (T-47D breast): > 100 µM
TGI (NCI-H460 lung): > 100 µM
TGI (COLO 205 colon): > 100 µM
TGI (SNB-19 CNS): > 100 µM
TGI (HL-60(TB) leukemia): > 100 µM
TGI (A498 renal): > 100 µM
TGI (SK-MEL-28 melanoma): > 100 µM
TGI (ACHN renal): > 100 µM
TGI (OVCAR-3 ovarian): > 100 µM
TGI (HCT-15 colon): > 100 µM
TGI (TK-10 renal): > 100 µM
TGI (RPMI-8226 leukemia): > 100 µM
TGI (MDA-MB-435): > 100 µM
TGI (A549 NSCLC): > 100 µM
TGI (UACC-257 melanoma): > 100 µM
TGI (HT29 colon): > 100 µM
TGI (HCT-116 colon): > 100 µM
TGI (U251 CNS): > 100 µM
TGI (HOP-92 NSCLC): > 100 µM
TGI (HCC-2998 colon): > 100 µM
TGI (OVCAR-8 ovarian): > 100 µM
TGI (SK-MEL-2 melanoma): > 100 µM
TGI (SF-539 CNS): > 100 µM
TGI (786-0 renal): > 100 µM
TGI (OVCAR-4 ovarian): > 100 µM
TGI (BT-549 breast): > 100 µM
TGI (MALME-3M melanoma): > 100 µM
TGI (SF-268 CNS): > 100 µM
TGI (M14 melanoma): > 100 µM
TGI (SK-MEL-5 melanoma): > 100 µM
TGI (SW-620 colon): > 100 µM
TGI (SK-OV-3 ovarian): > 100 µM
TGI (SF-295 CNS): > 100 µM
TGI (MCF7 breast): 86.5 µM
TGI (MDA-MB-231 breast): > 100 µM
TGI (DU-145 prostate): > 100 µM
TGI (CAKI-1 renal): > 100 µM
TGI (HOP-62 NSCLC): > 100 µM
TGI (NCI-H226 lung): > 100 µM

O=C(O)c1ccccc1CC1Cc2ccccc2C1=O (stereo not drawn)
TGI (KM12 colon): > 100 µM
TGI (PC-3 prostate): > 100 µM
TGI (SR leukemia): > 100 µM
TGI (HS 578T breast): > 100 µM
TGI (NCI-H522 lung): > 100 µM
TGI (MDA-N): > 100 µM
TGI (EKVX NSCLC): > 100 µM
TGI (LOX IMVI melanoma): > 100 µM
TGI (K-562 leukemia): > 100 µM
TGI (RXF 393 renal): > 100 µM
TGI (IGROV1 ovarian): > 100 µM
TGI (UACC-62 melanoma): > 100 µM
TGI (MOLT-4 leukemia): > 100 µM
TGI (UO-31 renal): > 100 µM
TGI (NCI-H23 lung): > 100 µM
TGI (SN12C renal): > 100 µM
TGI (NCI/ADR-RES ovarian): > 100 µM
TGI (T-47D breast): > 100 µM
TGI (SNB-75 CNS): > 100 µM
TGI (NCI-H460 lung): > 100 µM
TGI (CCRF-CEM leukemia): > 100 µM
TGI (COLO 205 colon): > 100 µM
TGI (SNB-19 CNS): > 100 µM
TGI (HL-60(TB) leukemia): > 100 µM
TGI (SK-MEL-28 melanoma): > 100 µM
TGI (ACHN renal): > 100 µM
TGI (OVCAR-3 ovarian): > 100 µM
TGI (HCT-15 colon): > 100 µM
TGI (TK-10 renal): > 100 µM
TGI (RPMI-8226 leukemia): > 100 µM
TGI (MDA-MB-435): > 100 µM
TGI (A549 NSCLC): > 100 µM
TGI (UACC-257 melanoma): > 100 µM
TGI (HT29 colon): > 100 µM
TGI (HCT-116 colon): > 100 µM
TGI (U251 CNS): > 100 µM
TGI (HOP-92 NSCLC): > 100 µM
TGI (HCC-2998 colon): > 100 µM
TGI (OVCAR-8 ovarian): > 100 µM
TGI (SK-MEL-2 melanoma): > 100 µM
TGI (SF-539 CNS): > 100 µM
TGI (786-0 renal): > 100 µM
TGI (OVCAR-4 ovarian): > 100 µM
TGI (BT-549 breast): > 100 µM
TGI (MALME-3M melanoma): > 100 µM
TGI (SF-268 CNS): > 100 µM
TGI (M14 melanoma): > 100 µM
TGI (SK-MEL-5 melanoma): > 100 µM
TGI (SW-620 colon): > 100 µM
TGI (SK-OV-3 ovarian): > 100 µM
TGI (SF-295 CNS): > 100 µM
TGI (MCF7 breast): > 100 µM
TGI (MDA-MB-231 breast): > 100 µM
TGI (DU-145 prostate): > 100 µM
TGI (CAKI-1 renal): > 100 µM
TGI (OVCAR-5 ovarian): > 100 µM
TGI (HOP-62 NSCLC): > 100 µM
TGI (NCI-H226 lung): > 100 µM

— PubChem BioAssay (NCI)
